Results on 24 compounds are retold here after patent publication US20210024483A1, “HETEROCYLCOALKENYL DERIVATIVES USEFUL AS AGONISTS OF THE GPR120 AND / OR GPR40” (Janssen Pharmaceutica NV, priority 2018, published 2021).

In one assay the target is GPR40 (UniProt O14842). The experiment in a line: GPR40 Calcium Flux Assay. Type of assay: cell-based. The following applies: transfected HEK293 cells stably expressing human or rat GPR40; species not given. As to the method: Biological Example 3: In Vitro Assay
Compounds were tested in a calcium flux assay using transfected HEK293 cells stably expressing either human GPR40 or rat GPR40. Human GPR40 expressing cells were cultured in DMEM-High Glucose media supplemented with 10% fetal bovine serum, 1×L-Glutamine, 1× Penicillin/Streptomycin and 500 μg/mL G418. Rat GPR40 expressing cells were cultured in DMEM-High Glucose media supplemented with 10% fetal bovine serum and 1 μg/mL puromycin. Cells were plated into poly-D-lysine coated 384-well plates and cultured overnight in a 37° C. humidified tissue culture incubator under 5% CO2/90% O2 atmosphere.
On the day of the experiment, the culture media was replaced with assay buffer (HBSS, 20 mM HEPES, 0.1% BSA) and the cells incubated at 37° C. for 1 h. Calcium-sensitive fluorescent dye (Fluo 8 No-Wash Calcium Dye, ABD Bioquest) was then added and the cells incubated for another 30 min at 37° C. followed by 15 min at room temperature while protected from the light. The cell plate and a plate of diluted compounds of Formula (I) were loaded into a fluorescent plate reader that added compounds onto the cells while measuring the fluorescence intensity of each well. The plate reader recorded fluorescence intensity at 1 second intervals for 8 min and provided the data for analysis in an Excel format. EC50 values were calculated using Prism (GraphPad) software.
In general terms: Calcium flux is commonly read through the fluorescence of an indicator in the cells.

Assay [1] deals with T1, Human GPR120 short form (short splice variant, NM_001195755.1) (Homo sapiens, UniProt Q5NUL3).
T1 construct: expressed in transfected cells; host or cells: HEK293
T1 sequence (Q5NUL3 1-361): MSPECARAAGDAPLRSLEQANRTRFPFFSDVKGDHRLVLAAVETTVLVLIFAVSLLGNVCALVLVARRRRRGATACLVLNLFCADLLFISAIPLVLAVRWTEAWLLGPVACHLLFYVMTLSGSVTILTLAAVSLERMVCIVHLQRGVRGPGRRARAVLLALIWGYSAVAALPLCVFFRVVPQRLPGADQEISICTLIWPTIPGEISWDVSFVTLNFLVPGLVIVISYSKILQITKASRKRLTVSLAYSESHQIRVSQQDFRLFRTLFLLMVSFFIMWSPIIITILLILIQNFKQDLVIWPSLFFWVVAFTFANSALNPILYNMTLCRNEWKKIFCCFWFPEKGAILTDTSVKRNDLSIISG
The experiment in a line: Human GPR120 Calcium Flux Assay. Type of assay: cell-based. As to conditions: HEK-293 cells, 4200 cells/well, read-out: Human GPR120 Calcium Flux Assay Procedure B EC50. The source says: In Vitro Assay: Human GPR120 in Calcium Flux Assay
This in vitro assay serves to assess test compound agonist activity against the short splice variant (SVS with Accession number NM_001195755.1 confirmed by sequencing data) of the GPR120 receptor. The Human Short splice variant #2 (NM_001195755.1) is missing an in-frame coding exon compared to variant 1 (the Human Long splice variant NM_181745.3), resulting in a shorter isoform (GPR120-S) lacking a 16 aa protein segment compared to isoform GPR120-L. The assay platform utilizes HEK-293 cells stably transfected to express the Human GPR120 short form. These cells are first loaded with the Ca^+2 sensitive dye, Fluo-4 NW. Upon stimulation, intracellular released Ca^+2 can bind to the dye and alter its fluorescence intensity. This increase in fluorescence signal, and thus the flux in intracellular [Ca^2+], is detected and quantitated by fluorescence imaging using a FLIPR reader. The effect of the agonist is measured as a function of concentration and used to calculate an EC50 based upon a response curve. […]
In this procedure 4200 cells/well were employed.
A Human GPR120 clone (Genbank accession number NM_001195755.1) was placed into the pcDNA3.1 mammalian expression vector carrying the neomycin resistance gene. A stable mammalian cell was generated by placing the above clone into a HEK293 background. Clonal cells responding to long chain fatty acids had expression levels of GPR120 confirmed by RT-qPCR. Human HEK-GPR120 cells were cultured in Dulbecco's Modified Eagle's Medium (DMEM)/F12 medium supplemented with 10% fetal bovine serum (FBS), 1% L-Glutamine and 1% penicillin/streptomycin and 0.5 mg/ml G-418. Cells were split 2 times a week to keep the cells in the log-phase growth.
In preparation for the assay, HEK cells stably transfected with Human GPR120 (2.5K cells per well in 25 uL growth medium) were seeded into 384-well plates and then incubated overnight (37° C., 5% CO2). The next day, the media was changed to 20 μL assay buffer and the cell starved for 1 h at 37° C. The dye loading solution (2× dye) was prepared using 10 mL assay buffer, 100 μL of 250 mM probenecid, 1 bottle of Component A, and 20 μl of dye in DMSO. Twenty μL of the 2× dye loading buffer was then added to each well. The plates were incubated at 37° C. for 30 min, then at room temperature for an additional 15 minutes, before performing the assay on FLIPR.
The assay was performed on a FLIPR plate reader using the following parameters. Baseline was read for 10 seconds at 1 sec intervals. The program was set to transfer 10 μL of ligand from compound plate to cell plate after baseline reading. Aspiration was executed at: 10 μL/sec speed, 4.6 μL height; Dispensing was executed at: 30 μL/sec speed, 45 μL height. After compound addition, each well was read for 300 sec, with measurements collected at 1 sec intervals.
The kinetic data from the FLIPR was based upon a 5 minute window for data collection. The fluorescence of each sample well was used for individual calculations of a normalized RFU value, which was defined as maximum response minus the minimum response. The normalized fluorescence reading (RFU) was calculated as follows:
The data were fitted to a sigmoidal dose-response curve with a variable Hill slope (<2) using nonlinear regression with GraphPad Prism 5.0 to calculate the EC50 values. The Fitting Equation was: Y=Bottom+(Top−Bottom)/(1+10^((Log EC50−X)*HillSlope)), where X is the log of the concentration and Y is the response.

Structures are written as SMILES.

Broadly, the EC50 is the concentration needed to bring the measured effect to its halfway point. Turning to `C=C(C1=C(COc2ccc(CCC(=O)O)c(C(F)(F)F)c2)COCC1)c1ccccc1` [compound 687], the EC50 is 54 nM at GPR40 and above 5000 nM in assay [1].
For the compound `Cc1c(CCC(=O)O)ccc(OCC2=C(C3CCC3)CCOC2)c1C` [compound 724], the EC50 at GPR40 is above 10000 nM; in assay [1], 275 nM.
Consider `O=C(O)CCc1ccc(OCC2=C(Cc3ccccc3)CCOC2)cc1Cl` [compound 713], for which the EC50 on GPR40 was 703 nM; in assay [1], above 5000 nM.
Turning to `O=C(O)CCc1ccc(OCC2=C(C3CCCC3)COCC2)cc1` [compound 764], the concentration for a half-maximal effect (EC50) on GPR40 was 1440 nM; in assay [1] it was 455 nM.
In the same order, the values of `C=C(C1=C(COc2ccc(CCC(=O)O)c(Cl)c2)COCC1)c1ccccc1` [compound 720] are 339 nM and above 5000 nM.
In the case of `Cc1ccc(CC2=C(COc3ccc(CCC(=O)O)c(C(F)(F)F)c3)COCC2)cc1` [compound 692], the EC50 at GPR40 is 324 nM; in assay [1] it was above 5000 nM.
The like results for `O=C(O)CCc1ccc(OCC2=C(C3CCC3)CCOC2)cc1Cl` [compound 725] were, in that order, 588 nM and 2340 nM.
As for `Cc1ccc(C2=C(COc3ccc(CCC(=O)O)c(C(F)(F)F)c3)COCC2)cc1F` [compound 685], the half-maximal effective concentration (EC50) amounted to 829 nM on GPR40 and 970 nM in assay [1].
In the same order, the values of `CC(C)CC1=C(COc2c(F)cc(CCC(=O)O)cc2F)COCC1` [compound 733] are above 10000 nM and 1810 nM.
In the same order, the values of `O=C(O)CCc1ccc(OCC2=C(C3CCCC3)CCOC2)cc1C(F)(F)F` [compound 731] are 93 nM and 818 nM.
In the same order, the values of `CCCCC1=C(COc2ccc(CCC(=O)O)c(C(F)(F)F)c2)COCC1` [compound 707] are 326 nM and 829 nM.
Take `O=C(O)CCc1ccc(OCC2=C(C3CCCC3)CCOC2)cc1Cl` [compound 727]: the EC50 turned out to be 386 nM on GPR40 and 1600 nM in assay [1].
On to `O=C(O)CCc1ccc(OCC2=C(C3CCCCC3)CCOC2)cc1C(F)(F)F` [compound 729], for which the 50% effective concentration (EC50) at GPR40 amounted to 847 nM; in assay [1] it was 2680 nM.
In the same order, the values of `O=C(O)CCc1ccc(OCC2=C(Cc3ccc(Cl)cc3)CCOC2)cc1Cl` [compound 709] are 2300 nM and above 5000 nM.
Consider `O=C(O)CCc1ccc(OCC2=C(C3C=CCC3)CCOC2)cc1` (stereo not drawn) [compound 740], for which the EC50 turned out to be 2080 nM on GPR40 and 1140 nM in assay [1].
The like results for `C=C(C1=C(COc2ccc(CCC(=O)O)cc2)COCC1)c1ccccc1` [compound 699] were, in that order, 1740 nM and above 5000 nM.
In the same order, the values of `COc1ccc(CC2=C(COc3ccc(CCC(=O)O)cc3)COCC2)cc1` [compound 697] are around 18900 nM and above 5000 nM.
Take `Cc1ccc(C2=C(COc3ccc(CCC(=O)O)c(C(F)(F)F)c3)COCC2)c(F)c1` [compound 684]: the EC50 stood at 2700 nM on GPR40 and 786 nM in assay [1].
On to `CC(C)CC1=C(COc2ccc(CCC(=O)O)c(Cl)c2)COCC1` [compound 732], for which the figures for the concentration giving a half-maximal response (EC50) (at GPR40; in assay [1]) were 1060 nM and above 5000 nM, respectively.
The like results for `Cc1ccc(C2=C(COc3ccc(CCC(=O)O)c(C)c3C)COCC2)cc1F` [compound 659] were, in that order, above 10000 nM and 66 nM.
In the same order, the values of `Cc1ccc(CC2=C(COc3ccc(CCC(=O)O)cc3)COCC2)cc1` [compound 691] are 3620 nM and 2400 nM.
In the case of `O=C(O)CCc1cc(F)c(OCC2=C(C3CCCC3)CCOC2)c(F)c1` [compound 736], the EC50 on GPR40 was above 10000 nM; in assay [1], 615 nM.
In the same order, the values of `CC(C1=C(COc2ccc(CCC(=O)O)c(C(F)(F)F)c2)COCC1)c1ccccc1` (stereo not drawn) [compound 701] are 145 nM and above 5000 nM.
The like results for `C=C(C1=C(COc2ccc(CCC(=O)O)c(C(F)(F)F)c2)COCC1)c1ccccc1Cl` [compound 706] were, in that order, 38 nM and above 5000 nM.
